Assay results: patent US20210283211A1, “COMPOSITIONS AND METHODS OF ALLEVIATING RESISTANCE TO CHEMOTHERAPY” (CITY OF HOPE, priority 2019, published 2021)

Tests used:
Type in all cases: cell-based, human
H2009 cells = assay: IncuCyte cell proliferation and caspase-3/7 apoptosis assay; details: 10 μM cisplatin alone
Method: (§1) Cell proliferation and apoptosis assay. Cell proliferation assays were performed using cell lines stably transfected with NucLight Red Lentivirus (Essen Bioscience) to accurately visualize and count the nucleus of a single cell. Cells were seeded on a 96-well plate and allowed to adhere for 24 hours. Test compounds were added at indicated concentrations. Caspase-3/7 Green Apoptosis Reagent (Essen Bioscience) was also added as a green fluorescent indicator of caspase-3/7-mediated apoptotic activity. To monitor cell proliferation and apoptosis over time, the plate was placed in the IncuCyte S3 Live-Cell Analysis System (Essen BioScience) and images were acquired every 2 hours. Data analysis was generated by the IncuCyte software using a red fluorescence mask to accurately count each cell nucleus and a green fluorescence mask to measure apoptosis over time.
(§2) To determine whether the inhibition in cell proliferation associated with ITGB4 knockdown was due to enhanced apoptosis or reduced cell division (cytostatic), the Essen Bioscience Caspase-3/7 Green apoptosis assay in live cells was conducted. The NucView™[…], a DNA intercalating dye was used to enable quantification of apoptosis over time. The dye is impermeable and non-toxic to cells but once the cell membrane is permeabilized by caspase-3/7, the dye enters the cell and gets activated due to change in pH leading to the generation of green fluorescence that is then detected in real time and quantified using the IncuCyte System (FIG. 4B).
(§3) To address this, H1993 and H2009 cells were treated with cisplatin for 3 days and the changes were analyzed by immunoblotting. […] Next, H1993 and H2009 cells were transiently transfected with ITGB4 siRNA and 24 hours post-transfection they were treated with 10 μM cisplatin and cell proliferation and caspase activity were determined. […] However, in response to cisplatin in ITGB4 knockdown cells, the fold change dipped to <1, alluding to a cytotoxic effect (FIG. 4C). […] However, cell death was not due to caspase activation but appeared to be due to cell bursting which is seen in anoikis (FIGS. 3K and 3L).

H1993 cells = assay: as above
Method: as §1, §2
as §3, with “3L). […]” for “3L).”

[1] = tested on: patient-derived organoids (lung cancer); assay: Patient tumor tissue-derived organoid assay (area, caspase activity)
Method: Next, drug efficacy in patient tumor tissue-derived organoids was determined. Approximately 5000 cells/sample from 2 surgical samples were seeded in an ultra-low attachment plate and incubated at 37° C. […] In one of the patient-derived organoids, cisplatin treatment alone decreased spheroid area and increased apoptosis as measured by green intensity (FIG. 11D). […] Indeed, by 72 hours carfilzomib at a concentration of 2.5 μM induced 5-fold increase in caspase activity compared to cisplatin alone but there was not much change in the spheroid area (FIGS. 11E-11F). Thus, no additive effect was apparent in this patient sample. […] The efficacy of ITGB4 antibody in disrupting organoid growth and inducing apoptosis was also tested.

[2] = tested on: ITGB4 expression in H2009 cells; assay: FACS analysis with ITGB4 antibody after cisplatin; details: cisplatin for 4 days, FACS on day 5
Method: Fluorescence-activated cell sorting (FACS) and analysis: Cells were trypsinized and resuspended (5 million) in PBS with 2% FBS. Cells were stained with ITGB4 antibody conjugated to Alexa Fluor® 488 (5 μl/1 million cells) (R&D Systems, Minneapolis, Minn., USA) and Propidium Iodide Ready Flow™ Reagent (1 drop/1 million cells) (Invitrogen) for 30 minutes at 4° C. The Analytical Cytometry Core Facility at City of Hope carried out and assisted all FACS sorting and analysis experiments. Gates were set to sort cell populations having low 10% and high 10% expression of ITGB4 using the FACSAria™ Fusion (BD Biosciences, San Jose, Calif., USA). Sorted cells were immediately cultured in 12-well plates and treated with cisplatin (1 μM) for 48 hours. Then, equal number of untreated and treated cells were collected and stained with same reagents as above. FACS analysis was performed to determine shifts in cell population using the Attune NxT Flow Cytometer (Invitrogen).
To test the predictions made by the model, H2009 cells were treated with cisplatin for 4 days. On day 5, they were subjected to FACS analysis using an ITGB4 antibody. […] In presence of stress, the cells either increased the expression of ITGB4 or the cells having high ITGB4 get selected (FIG. 13B). […] The cells were then counted, and an equal number of cells were stained with ITGB4 antibody and PI and analyzed by FACS sorting.

[3] = tested on: ITGB4, PXN, USP1, VDAC1, CD133 in patient-derived organoids; assay: Immunoblot of treated patient-derived organoids; details: 48 hours, printed 2.5 mM and 5 mM
[4] = tested on: ITGB4, PXN, FAK, MET, γH2AX, cleaved PARP in H1993 cells; assay: Immunoblot; details: cisplatin 10 μM, 3 days
Method: (§4) West blotting: Cell lysates were prepared with 1×RIPA buffer (MilliporeSigma) and denatured in 1× reducing sample buffer at 95° C. for 5 minutes. Protein samples (15 μg) were run on 4-15% TGX gels (Bio-Rad, Hercules, Calif., USA) and transferred onto nitrocellulose membranes (Bio-Rad). Blots were blocked with 5% non-fat milk in TBS-T for 1 hour at room temperature and probed with primary antibody diluted in 2.5% BSA in TBS-T overnight at 4° C. After three washes with TBS-T, blots were incubated with HRP-conjugated secondary antibodies for 2 hours at room temperature. After three more washes, bands of interest were visualized via chemiluminescence using Western Bright ECL HRP substrate (Advansta, Menlo Park, Calif., USA) and imaged with the ChemiDoc MP imager (Bio-Rad).
(§5) Then a sublethal dose was used to determine the effect of these compounds on ITGB4 and PXN expression and caspase activity (FIG. 9I). […] These eleven compounds were further screened in the cisplatin-resistant cell line H2009. […] Further, carfilzomib was tested in another cisplatin-resistant cell line H1993.

[5] = tested on: ITGB4, PXN, FAK, p27, phospho-Rb, γH2AX, cleaved PARP in H2009 cells; assay: Immunoblot; details: cisplatin 10 μM, 3 days
Method: as §4, §5

N.N.[Cl][Pt][Cl] [Cisplatin, Cis-diamminedichloroplatinum(II)]
apoptosis (H2009 cells): induced apoptosis in H2009 cell by 72 hours
caspase activity (H1993 cells; 10 μM cisplatin alone): did not induce caspase activity
fold change in cell count (H1993 cells; ITGB4 knockdown or 10 μM cisplatin alone, cytostatic): ~1 fold
spheroid area ([1]; patient LCSC2): decreased the spheroid area
organoid size ([1]; patient LCSC4, cisplatin 5 μM alone, carfilzomib 2.5 μM alone): decreased the size of the organoid
caspase activity ([1]; second patient (LCSC2) organoids, drug alone): did not induce any caspase activity
decrease in ITGB4 low-expressing cells compared to untreated [2]: 15%
protein expression by immunoblot [3]: minimal effect
protein expression by immunoblot [4]: reduction in the expression of phosphorylated as well as total FAK and PXN
protein expression by immunoblot [5]: reduction in the expression of phosphorylated as well as total FAK and PXN
